Experimental data published in PubChem BioAssay (NCI).
Values joined by “and” are separate entries in the source; they are usually repeats but may differ in a detail not shown here. Identical values can stand only once.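 Growth conditions: 96-well plates. Treatment: test compound, 48 hours, 5 concentrations. Analysis: linear interpolation between bracketing concentrations; unreached endpoints set to highest concentration. Abbreviation: GI50, concentration required for 50% inhibition of growth. TGI denotes the concentration required for complete inhibition of growth.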

Columns and labels:
Assay in all cases: DTP human tumour cell line panel, 48 h
IGROV1 ovarian = tested on: IGROV1 ovarian
SK-OV-3 ovarian = tested on: SK-OV-3 ovarian
SF-295 CNS = tested on: SF-295 CNS
MDA-MB-435 = tested on: MDA-MB-435
SK-MEL-28 melanoma = tested on: SK-MEL-28 melanoma
KM12 colon = tested on: KM12 colon
UACC-257 melanoma = tested on: UACC-257 melanoma
M14 melanoma = tested on: M14 melanoma
A549 NSCLC = tested on: A549 NSCLC
A498 renal = tested on: A498 renal

Row | SMILES | TGI (IGROV1 ovarian) | TGI (SK-OV-3 ovarian) | TGI (SF-295 CNS) | TGI (MDA-MB-435) | TGI (SK-MEL-28 melanoma) | TGI (KM12 colon) | TGI (UACC-257 melanoma) | TGI (M14 melanoma) | TGI (A549 NSCLC) | TGI (A498 renal) | GI50 (UACC-257 melanoma) | GI50 (IGROV1 ovarian) | GI50 (A498 renal) | GI50 (SK-OV-3 ovarian) | GI50 (SF-295 CNS) | GI50 (MDA-MB-435) | GI50 (SK-MEL-28 melanoma) | GI50 (KM12 colon) | GI50 (A549 NSCLC) | GI50 (M14 melanoma)
1 | CC(C)(C)NCc1cc(C(C)(C)C)cc(-c2ccc(Cl)cc2)c1O | 24.6 µM | 31.5 µM | 36.6 µM | 25.2 µM | 28.2 µM | 27.1 µM | 50.3 µM | 28.8 µM | 32.4 µM |  |  |  |  |  |  |  |  |  |  | 
2 | CN1c2ccccc2N(C)C2C1N(C)c1ccccc1N2C (stereo not given) | > 100 µM |  | > 100 µM |  | 17.6 µM | > 100 µM | > 100 µM | 65 µM | > 100 µM | 84.1 µM |  |  |  |  |  |  |  |  |  | 
3 | COC1OC(CO)C(O)C(O)C1Br (stereo not given) | > 100 µM |  | > 100 µM |  | > 100 µM | > 100 µM | > 100 µM | > 100 µM | > 100 µM | > 100 µM |  |  |  |  |  |  |  |  |  | 
4 | CCOC(=O)C(CO)c1nc2c([nH]c1=O)c(=O)n(C)c(=O)n2C (stereo not given) | > 100 µM |  | > 100 µM | > 100 µM | > 100 µM | > 100 µM | > 100 µM | > 100 µM | > 100 µM | > 100 µM |  |  |  |  |  |  |  |  |  | 
5 | CO/C1=C\C(C)=C\C(C)C(O)C(C)C/C(C)=C/C=C/C(OC)C(C(C)C(O)C(C)C2(O)CC(O)C(C)C(C(C)C)O2)OC1=O (stereo not given) | 23.7 µM | 33.6 µM | 0.0215 µM and 0.0198 µM | 0.0042 µM | 23.5 µM | 15 µM | 0.0699 µM and 0.0653 µM | 0.00127 µM | 0.0222 µM and 0.0105 µM |  | 0.0248 µM |  |  |  |  |  |  |  |  | 
6 | CCOC(=O)c1[nH]c(-c2ccc(Cl)cc2)cc1-c1cccnc1 | > 100 µM | > 100 µM | > 100 µM | 1.42 µM | > 100 µM | > 100 µM | > 100 µM |  | > 100 µM | 9.37 µM | > 100 µM | 1.37 µM | 0.811 µM | 1.05 µM | 0.453 µM | 0.279 µM | 0.982 µM | 0.595 µM | 0.812 µM | 
7 | COc1cc2noc(-c3ccccc3)c2cc1OC | > 100 µM | > 100 µM | 38.6 µM |  |  | > 100 µM | > 100 µM | > 100 µM | > 100 µM | 83.1 µM |  |  |  |  |  |  |  |  |  | 
8 | CN(C)CCCN1c2nc3ccccc3cc2Sc2cc3ccccc3nc21 |  | 3.01 µM | 2.81 µM | 2.96 µM | 2.21 µM | 2.88 µM | 3.53 µM | 3.23 µM |  | 2.96 µM | 1.76 µM |  | 1.57 µM | 1.59 µM | 1.39 µM | 1.51 µM | 1.04 µM | 1.51 µM |  | 1.69 µM
9 | C(CCC[Te][Te]CCCCCCOC1CCCCO1)CCOC1CCCCO1 (stereo not given) | 48 µM | 80.7 µM | 32.1 µM |  | 27.4 µM | 28.9 µM | 20.7 µM | > 100 µM | 41.5 µM | 37.8 µM |  |  |  |  |  |  |  |  |  | 
10 | ClC(Cl)c1nc(-c2cccnc2)n2nc(-c3ccccc3)cc2n1 | 5.23 µM | 5.02 µM | 6.52 µM | 2.82 µM | 3.51 µM |  | 6.08 µM | 2.79 µM | 9 µM | 2.17 µM | 2.39 µM | 1.63 µM | 0.0299 µM | 1.78 µM | 2.27 µM | 1.34 µM | 1.71 µM |  | 1.3 µM | 1.14 µM
11 | COc1cccc(C(=O)N2CCc3ccccc32)c1OC | > 100 µM | > 100 µM | > 100 µM |  | > 100 µM | > 100 µM | > 100 µM | > 100 µM | > 100 µM |  |  |  |  |  |  |  |  |  |  | 
12 | O=C(O)/C(=C/c1c(O)ccc2ccccc12)c1csc(-c2nc(/C(=C\c3c(O)ccc4ccccc34)C(=O)O)cs2)n1 | 24.1 µM | 26.8 µM | 28.5 µM |  | 32.1 µM | 53.2 µM | 40.9 µM | 25.4 µM | 55.5 µM | 41.7 µM |  |  |  |  |  |  |  |  |  | 
13 | CC(=O)OC1CC2C(C)(C)C(=O)C=C[C@]2(C)C2CCC3(C)C(c4ccoc4)C(=O)[C@H]4O[C@]43[C@]12C (stereo not given in full) | 78.9 µM | > 100 µM |  |  | 32.7 µM |  |  | 82.4 µM |  | 36.8 µM |  |  |  |  |  |  |  |  |  | 
14 | C1CSCCCSCCSCCCSC1 | > 100 µM | > 100 µM | > 100 µM | > 100 µM | > 100 µM |  | > 100 µM | > 100 µM | > 100 µM | > 100 µM |  |  |  |  |  |  |  |  |  | 
15 | COc1cc(/C=C\[N+](=O)[O-])ccc1OCc1ccccc1 | 7.6 µM | 15.2 µM | 18.8 µM | 10.3 µM | 4.5 µM | 10.8 µM | 5.83 µM | 4.31 µM | 10.5 µM |  | 2.08 µM | 2.48 µM |  | 4.65 µM | 4.07 µM | 2.37 µM | 2.08 µM | 3.06 µM | 3.17 µM | 1.65 µM
16 | NC(=O)N/N=C/C(/C=N/NC(N)=O)[N+](=O)[O-] | > 100 µM | > 100 µM | > 100 µM |  | > 100 µM | > 100 µM | > 100 µM | > 100 µM | > 100 µM | > 100 µM |  |  |  |  |  |  |  |  |  | 
17 | COc1cc2c3c(n(CCCNCCN)c(=O)c2cc1OC)-c1cc2c(cc1C3=O)OCO2 |  | > 100 µM | 20.3 µM | 4.56 µM | 2.95 µM | 7.19 µM | 14.1 µM | 5.26 µM | 13.7 µM |  | 1.95 µM | 0.839 µM |  | > 100 µM | 1.24 µM | 1.02 µM | 0.822 µM | 1.48 µM | 1.61 µM | 0.738 µM
18 | COCC(=O)CP(=O)(OC)OC | > 100 µM | > 100 µM | > 100 µM |  | > 100 µM | > 100 µM | > 100 µM | > 100 µM | > 100 µM | > 100 µM |  |  |  |  |  |  |  |  |  | 
19 | O=S(=O)(NCC1CCC(CNc2ccc(Cl)cc2)CC1)c1ccc(-c2ccccc2)cc1 (stereo not given) | > 50 µM | > 50 µM | > 50 µM | > 50 µM | > 50 µM | > 50 µM | > 50 µM | > 50 µM | > 50 µM |  | > 50 µM | > 50 µM |  | > 50 µM | > 50 µM | > 50 µM | > 50 µM | > 50 µM | 9.21 µM | > 50 µM
